Positions count from the first letter of the chain named. Numbers in names are those of the source. Where two headings read alike, the source gives them in different places.
Legend:
[1] = design: method as in PMID 23730736; settings: UV shift to ~366 nm; read-out: Heme binding affinity of the 9mer CP-motif (UV/Vis); cited from earlier work
IL-36α = target: T1, IL-36α (Homo sapiens, UniProt Q9UHA7); assay: UV/Vis differential spectroscopy, protoporphyrin IX applied to IL-36α; assay type: binding
T1 construct: three additional amino acids (Gly-Ser-His) attached at the N-terminus of full-length IL-36α (161 amino acids); His6 tag with thrombin cleavage site (N, cleaved yes); made in house; host or cells: Escherichia coli BL21(DE3), pET-28a
T1 sequence (Q9UHA7 6-158): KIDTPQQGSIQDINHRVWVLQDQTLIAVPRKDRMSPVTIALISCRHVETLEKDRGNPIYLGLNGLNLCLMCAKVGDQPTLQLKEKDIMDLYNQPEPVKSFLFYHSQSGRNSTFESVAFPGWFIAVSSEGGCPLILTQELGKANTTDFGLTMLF
Experimental: (§1) A Multiskan GO microplate spectrophotometer (ThermoFisher Scientific, Dreieich, Germany) was used for UV/Vis measurements. Heme and peptide solutions were prepared in 100 mM Hepes buffer (pH 7.0). IL-36 cytokines (~5 µM), dissolved in 20 mM sodium phosphate buffer (pH 6.9), were incubated with heme (0.2 to 40 µM) in the dark at room temperature for 60 minutes before UV/Vis spectra were measured at 300 to 600 nm. Protein concentrations were corrected using the calculated molar absorption coefficient at 280 nm. Peptides 1–7 (20 µM) were incubated with heme for 30 minutes in the dark at room temperature.

[2] = system: synovial fibroblast-like synoviocytes (FLS) from RA patients; assay: IL-6/IL-8 mRNA expression (qRT-PCR) in stimulated FLS; assay type: cell-based, human; settings: 24 h; for IL-6 and IL-8 expression (mRNA) in FLS: IL-36α 5.8 nM, heme 0.15 and 1.5 µM (ratios 26:1 and 260:1)
Experimental: Human fibroblast-like synoviocytes (FLS) were isolated from knee joints of rheumatoid arthritis patients obtained at the University Hospital Erlangen-Nuremberg[69]. All patients gave written informed consent, and their use for research was approved by the ethics committee of the University hospital Erlangen (ethic licenses 4013 and 4065). We confirm that all methods were performed in accordance with the relevant guidelines and regulations. Human RA FLS kept at 37 °C and 5% CO2 in a humidified incubator upon isolation. They were cultured in RPMI and DMEM at a ratio of 1:5, supplemented with 50 U/mL penicillin, 50 μg/mL streptomycin, 0.2% amphotericin and 2% fetal bovine serum. Cells between passages 3 to 8 were used. For stimulation experiments, human FLS from RA patients were seeded at a concentration of 100,000 cells/mL in 500 μL culture medium in a 48-well plate one day prior to the experiment. […] Cells were then incubated for either 5 min (western blot analysis of phosphorylation) or 24 h (qPCR and ELISA). Sample separation was performed by a reducing […] (10% SDS polyacrylamide gel) and blotted to a nitrocellulose membrane by semi-dry transfer. […] Cell viability was analyzed using the AlamarBlue assay according to the manufacturer's instruction (#741802, Invitrogen, Carlsbad, CA, USA), and absorbance was measured at 570 nm and 600 nm. For performing quantitative real-time PCR (qRT-PCR), RNA was isolated from FLS with […], Germany), followed by first-strand cDNA synthesis using the MultiScribeTM MuLV reverse transcriptase (Applied Biosystems, Foster City, CA, USA), both according to manufacturer's instruction. Relative gene expression was assessed by qRT-PCR using the Applied Biosystems 7500 fast-real-time-PCR System (Applied Biosystems) with SYBR® Select Master Mix (ThermoFisher Scientific) as detection method, according to the manufacturer's manual. Samples and the housekeeping gene GAPDH as endogenous control were analyzed in duplicates. […]

[3] = system: synovial fibroblast-like synoviocytes (FLS) from RA patients; assay: p38 activation in FLS (western blot of P-p38); assay type: cell-based, human; settings: 5 min stimulation
Experimental: Human fibroblast-like synoviocytes (FLS) were isolated from knee joints of rheumatoid arthritis patients obtained at the University Hospital Erlangen-Nuremberg[69]. All patients gave written informed consent, and their use for research was approved by the ethics committee of the University hospital Erlangen (ethic licenses 4013 and 4065). We confirm that all methods were performed in accordance with the relevant guidelines and regulations. Human RA FLS kept at 37 °C and 5% CO2 in a humidified incubator upon isolation. They were cultured in RPMI and DMEM at a ratio of 1:5, supplemented with 50 U/mL penicillin, 50 μg/mL streptomycin, 0.2% amphotericin and 2% fetal bovine serum. Cells between passages 3 to 8 were used.
For stimulation experiments, human FLS from RA patients were seeded at a concentration of 100,000 cells/mL in 500 µL culture medium in a 48-well plate one day prior to the experiment. Before stimulation of FLS, heme was pre-incubated with trIL-36α or trIL-36α protein mutants with substituted amino acids in the proposed heme-binding site in medium for 1 h at room temperature in the dark. […] Cell viability was analyzed using the AlamarBlue assay according to the manufacturer’s instruction (#741802, Invitrogen, Carlsbad, CA, USA), and absorbance was measured at 570 nm and 600 nm.

[4] = UV/Vis differential spectroscopy of heme-incubated proteins and peptides; assay type: binding; settings: peptide 20 µM, 30 min, 100 mM Hepes pH 7.0; read-out: KD for UV/Vis, IL-36α-derived peptides
Experimental: as §1

[5] = Peroxidase-like activity of heme complexes; assay type: biochemical; settings: protein:heme 1:1 and 1:2
Excerpt: A peroxidase-like activity of heme-peptide/protein complexes has been discussed to be critical due to cytotoxic ROS formation[4],[43]–[45]. We thus tested the peroxidase-like activity of IL-36α-heme-complexes in two different ratios (1:1 and 1:2, protein:heme) as well as of both heme-binding motifs (CP, YH) on the peptide level (Supplementary Fig. S5E).

[6] = Surface plasmon resonance (SPR) of heme binding to immobilized proteins, single-cycle kinetics
Experimental: SPR measurements were performed on a Biacore T200 instrument (GE Healthcare Europe GmbH, Freiburg, Germany) at 25 °C. The running buffer was 10 mM HEPES (pH 7.4), 150 mM NaCl, 0.05% Tween 20. The proteins BSA (VWR Life Science AMRESCO, Germany), lysozyme (AppliChem GmbH, Darmstadt, Germany), IL-36α (protein expression), trIL-36α (R&D Systems, Minneapolis, MN, USA), trIL-36β (isoform 2, R&D Systems, Minneapolis, MN, USA) and trIL-36γ (R&D Systems, Minneapolis, MN, USA) were covalently immobilized by amine coupling on a CM5 sensor chip (GE Healthcare). Briefly, lysozyme was diluted to a final concentration of 2.5 µg/mL in acetate buffer (pH 7.0), and BSA was diluted to 2.5 µg/mL in acetate buffer (pH 5.0). trIL-36α, trIL-36β, and trIL-36γ were diluted to 0.85 µg/mL in acetate buffer (pH 4.0). Subsequently, the proteins were separately injected at 10 µL/min on an EDC/NHS activated flow cell until immobilization levels of 1600 RU (lysozyme), 1050 RU (trIL-36α), 2900 RU (BSA), 937 RU (trIL-36β), and 320 RU (trIL-36γ) were achieved. An activated/deactivated flow cell was used for reference subtraction. […]

[7] = Fluorescence quenching of heme-incubated proteins; assay type: binding; settings: λex 306 nm, λem 352 nm; protein 1 µM, heme 0.1-16 µM
Experimental: All measurements were performed on a fluorescence spectrophotometer FP-8300 (Jasco, Tokyo, Japan). BSA (1 µM) and lysozyme (1 µM) were dissolved in PBS buffer (pH 7.4) and IL-36α variants (1 µM) in 20 mM sodium phosphate buffer (pH 6.9), were each dissolved in and incubated for 60 minutes with varying heme concentrations (0.1–16 µM) in the dark. Parameters were set to excitation at 306 nm, emission at 352 nm, bandwidth 10 nm (extinction) and 20 nm (emission)[30].

Molecule: SEGGC136P137LIL (SEGGCPLIL; UniProt Q9UHA7 132-140, looked up, fragment) [9mer CP-motif]
- Kd [1]: 3.75 ± 0.77 µM

Molecule: C=CC1=C(C)c2cc3[nH]c(cc4nc(cc5[nH]c(cc1n2)c(C)c5CCC(=O)O)C(CCC(=O)O)=C4C)c(C)c3C=C [protoporphyrin IX (PPIX), protoporphyrin IX]
- Effect on UV/Vis differential spectrum of IL-36α (IL-36α): No effect

Molecule: C=CC1=C(C)C2=Cc3c(C=C)c(C)c4[n]3[Fe+][n]3c(c(C)c(CCC(=O)O)c3=CC3=NC(=C4)C(C)=C3CCC(=O)O)=CC1=N2 [heme]
- IL-6 and IL-8 expression (mRNA) in FLS [2]: did not have an effect
- Activation of p38 in IL-36α-mediated signaling [3]: decreased activation of p38

Molecule: FLFY108H109SQSG (FLFYHSQSG; UniProt Q9UHA7 105-113, looked up, fragment) [Peptide 1, IL-36α-derived 9mer wild-type YH motif peptide]
- Kd [4]: 4.48 ± 2.2 µM
- Peroxidase-like activity relative to heme (100%) [5]: No significant increase

Molecule: Lysozyme: negative control (non-binder) for heme binding [reference compound]
- Heme binding by SPR (in words) [6]: non-binder
- Heme binding by fluorescence quenching (in words) [7]: non-binder

B1: IL-36α: full-length interleukin-36α, recombinantly expressed in E. coli (protein, UniProt Q9UHA7 1-158, looked up)
chain: MEKALKIDTPQQGSIQDINHRVWVLQDQTLIAVPRKDRMSPVTIALISCRHVETLEKDRGNPIYLGLNGLNLCLMCAKVGDQPTLQLKEKDIMDLYNQPEPVKSFLFYHSQSGRNSTFESVAFPGWFIAVSSEGGCPLILTQELGKANTTDFGLTMLF
modifications: full-length
notes: full-length interleukin-36α, recombinantly expressed in E. coli
- Heme binding by fluorescence quenching (in words) [7]: confirmed
- IL-6 and IL-8 expression (mRNA) in FLS [2]: induced IL-6 and IL-8 expression
- Peroxidase-like activity relative to heme (100%) [5]: No significant increase

B2: C136SP137A: IL-36α protein mutant C136S P137A (protein, UniProt Q9UHA7 6-158, looked up, variant C136S P137A)
Interleukin-36 alpha: T1 sequence (Q9UHA7 6-158) with C131S, P132A
- IL-6 expression / biological activity of IL-36α mutants in FLS ([2]; 5.8 nM protein, compared to IL-36α): showed biological activity, even if reduced with respect to wild-type IL-36α

Source: PMC6858345, “Structural insights into heme binding to IL-36α proinflammatory cytokine” (Scientific Reports, 2019)
